Values quoted from earlier work as cited in PMC9851200, “Multiparameter phenotypic screening for endogenous TFEB and TFE3 translocation identifies novel chemical series modulating lysosome function” (Autophagy, 2022).

Columns and labels:
Parameters in all cases: method as in original PKIS2 published data
[1] = biological target: T1, kinases (KINOMEscan panel) (Homo sapiens, UniProt Q9Y616); conditions: IRAK3; Published KINOMEscan; ref original PKIS2 published data; cited from earlier work
T1 sequence (Q9Y616 1-596): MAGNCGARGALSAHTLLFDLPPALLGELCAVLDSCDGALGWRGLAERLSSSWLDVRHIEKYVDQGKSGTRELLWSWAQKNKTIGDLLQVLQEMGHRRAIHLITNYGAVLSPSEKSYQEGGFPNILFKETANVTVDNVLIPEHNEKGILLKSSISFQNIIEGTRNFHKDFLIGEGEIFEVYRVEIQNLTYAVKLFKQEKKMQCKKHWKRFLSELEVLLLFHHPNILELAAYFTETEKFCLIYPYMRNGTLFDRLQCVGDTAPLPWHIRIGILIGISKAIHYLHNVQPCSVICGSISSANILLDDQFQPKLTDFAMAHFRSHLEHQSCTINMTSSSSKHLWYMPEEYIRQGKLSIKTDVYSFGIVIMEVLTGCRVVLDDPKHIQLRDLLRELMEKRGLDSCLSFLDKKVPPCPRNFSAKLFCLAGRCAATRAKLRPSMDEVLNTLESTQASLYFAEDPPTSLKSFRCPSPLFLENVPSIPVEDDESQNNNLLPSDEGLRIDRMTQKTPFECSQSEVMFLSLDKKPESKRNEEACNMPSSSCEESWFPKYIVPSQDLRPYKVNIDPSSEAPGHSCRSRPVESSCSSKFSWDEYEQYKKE

[2] = biological target: kinases (KINOMEscan panel) (Homo sapiens, UniProt Q02779); conditions: kinase MAP3K10; Published KINOMEscan; ref original PKIS2 published data; cited from earlier work
[3] = biological target: kinases (KINOMEscan panel) (Homo sapiens, UniProt Q99755); conditions: Published KINOMEscan; ref original PKIS2 published data; cited from earlier work
[4] = biological target: kinases (KINOMEscan panel) (Homo sapiens, UniProt Q9HC98); conditions: kinase NEK6; Published KINOMEscan; ref original PKIS2 published data; cited from earlier work
[5] = biological target: kinases (KINOMEscan panel) (Homo sapiens, UniProt P41240); conditions: kinase CSK; Published KINOMEscan; ref original PKIS2 published data; cited from earlier work
[6] = biological target: kinases (KINOMEscan panel) (Homo sapiens, UniProt P51451); conditions: kinase BLK; Published KINOMEscan; ref original PKIS2 published data; cited from earlier work
[7] = biological target: T2, kinases (KINOMEscan panel) (Homo sapiens, UniProt O00141); conditions: kinase SGK1; Published KINOMEscan; ref original PKIS2 published data; cited from earlier work
T2 sequence (O00141 1-431): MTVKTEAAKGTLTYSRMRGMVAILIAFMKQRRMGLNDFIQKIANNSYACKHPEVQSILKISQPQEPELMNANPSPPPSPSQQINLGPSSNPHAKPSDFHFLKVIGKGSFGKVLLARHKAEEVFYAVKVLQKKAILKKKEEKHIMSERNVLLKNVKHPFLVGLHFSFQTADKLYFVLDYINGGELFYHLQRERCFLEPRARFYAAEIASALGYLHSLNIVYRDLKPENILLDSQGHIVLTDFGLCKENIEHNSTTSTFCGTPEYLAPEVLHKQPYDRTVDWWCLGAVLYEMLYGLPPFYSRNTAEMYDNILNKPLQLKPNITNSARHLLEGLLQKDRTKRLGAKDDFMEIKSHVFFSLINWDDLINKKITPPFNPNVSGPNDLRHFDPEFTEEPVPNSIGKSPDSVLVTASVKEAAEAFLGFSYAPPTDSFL

[8] = biological target: kinases (KINOMEscan panel) (Homo sapiens, UniProt Q9BUB5); conditions: Published KINOMEscan; ref original PKIS2 published data; cited from earlier work
[9] = biological target: kinases (KINOMEscan panel) (Homo sapiens, UniProt Q2M2I8); conditions: AAK1; Published KINOMEscan; ref original PKIS2 published data; cited from earlier work
[10] = biological target: kinases (KINOMEscan panel) (Homo sapiens, UniProt Q13557); conditions: kinase CAMK2D; Published KINOMEscan; ref original PKIS2 published data; cited from earlier work
[11] = biological target: T3, kinases (KINOMEscan panel) (Homo sapiens, UniProt Q15835); conditions: Published KINOMEscan; ref original PKIS2 published data; cited from earlier work
T3 sequence (Q15835 1-563): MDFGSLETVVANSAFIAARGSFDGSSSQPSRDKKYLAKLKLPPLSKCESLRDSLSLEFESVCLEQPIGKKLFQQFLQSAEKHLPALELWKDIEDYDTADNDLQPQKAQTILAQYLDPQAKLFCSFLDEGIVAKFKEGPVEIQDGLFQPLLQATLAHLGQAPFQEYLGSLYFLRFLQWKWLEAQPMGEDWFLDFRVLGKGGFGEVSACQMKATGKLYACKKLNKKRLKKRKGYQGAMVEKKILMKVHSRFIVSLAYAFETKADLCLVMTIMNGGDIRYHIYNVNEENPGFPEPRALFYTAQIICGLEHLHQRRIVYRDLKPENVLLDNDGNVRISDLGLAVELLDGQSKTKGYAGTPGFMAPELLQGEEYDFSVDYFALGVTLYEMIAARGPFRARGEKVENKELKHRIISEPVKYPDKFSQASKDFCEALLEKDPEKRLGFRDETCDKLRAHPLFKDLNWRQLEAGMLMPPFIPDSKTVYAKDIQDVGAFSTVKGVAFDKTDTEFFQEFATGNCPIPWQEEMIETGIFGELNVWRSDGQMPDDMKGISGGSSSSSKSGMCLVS

[12] = biological target: kinases (KINOMEscan panel) (Homo sapiens, UniProt P32298); conditions: kinase GRK4; Published KINOMEscan; ref original PKIS2 published data; cited from earlier work
[13] = biological target: kinases (KINOMEscan panel) (Homo sapiens, UniProt O96017); conditions: kinase CHEK2; Published KINOMEscan; ref original PKIS2 published data; cited from earlier work
Sequence of kinases (KINOMEscan panel) (Homo sapiens, UniProt O96017) (O96017 whole entry): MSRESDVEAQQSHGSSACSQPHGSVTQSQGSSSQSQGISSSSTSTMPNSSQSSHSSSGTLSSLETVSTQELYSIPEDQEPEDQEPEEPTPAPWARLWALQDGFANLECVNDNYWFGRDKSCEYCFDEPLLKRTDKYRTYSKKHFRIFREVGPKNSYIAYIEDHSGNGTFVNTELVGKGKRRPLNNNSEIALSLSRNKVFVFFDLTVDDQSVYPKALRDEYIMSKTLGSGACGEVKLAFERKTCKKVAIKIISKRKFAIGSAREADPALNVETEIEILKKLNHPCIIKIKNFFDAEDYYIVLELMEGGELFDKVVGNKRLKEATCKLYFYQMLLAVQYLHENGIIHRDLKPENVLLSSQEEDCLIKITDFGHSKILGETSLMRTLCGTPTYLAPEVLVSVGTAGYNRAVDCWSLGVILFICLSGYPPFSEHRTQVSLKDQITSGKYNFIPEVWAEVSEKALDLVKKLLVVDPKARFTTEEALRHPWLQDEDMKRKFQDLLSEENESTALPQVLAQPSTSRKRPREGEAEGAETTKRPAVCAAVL

Sequence of kinases (KINOMEscan panel) (Homo sapiens, UniProt Q9BUB5) (Q9BUB5 whole entry): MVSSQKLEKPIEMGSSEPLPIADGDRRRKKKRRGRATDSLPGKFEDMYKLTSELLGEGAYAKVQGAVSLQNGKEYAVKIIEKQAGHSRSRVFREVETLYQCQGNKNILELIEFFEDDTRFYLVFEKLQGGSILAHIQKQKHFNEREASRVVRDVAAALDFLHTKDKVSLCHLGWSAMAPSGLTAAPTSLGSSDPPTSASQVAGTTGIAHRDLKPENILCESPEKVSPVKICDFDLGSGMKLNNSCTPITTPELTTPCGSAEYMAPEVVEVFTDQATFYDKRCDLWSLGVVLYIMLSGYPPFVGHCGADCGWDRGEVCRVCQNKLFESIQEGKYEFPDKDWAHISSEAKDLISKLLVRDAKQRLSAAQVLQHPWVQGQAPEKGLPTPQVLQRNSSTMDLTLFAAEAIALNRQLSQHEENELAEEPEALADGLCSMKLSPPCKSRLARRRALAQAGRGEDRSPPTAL
Sequence of kinases (KINOMEscan panel) (Homo sapiens, UniProt Q99755) (Q99755 whole entry): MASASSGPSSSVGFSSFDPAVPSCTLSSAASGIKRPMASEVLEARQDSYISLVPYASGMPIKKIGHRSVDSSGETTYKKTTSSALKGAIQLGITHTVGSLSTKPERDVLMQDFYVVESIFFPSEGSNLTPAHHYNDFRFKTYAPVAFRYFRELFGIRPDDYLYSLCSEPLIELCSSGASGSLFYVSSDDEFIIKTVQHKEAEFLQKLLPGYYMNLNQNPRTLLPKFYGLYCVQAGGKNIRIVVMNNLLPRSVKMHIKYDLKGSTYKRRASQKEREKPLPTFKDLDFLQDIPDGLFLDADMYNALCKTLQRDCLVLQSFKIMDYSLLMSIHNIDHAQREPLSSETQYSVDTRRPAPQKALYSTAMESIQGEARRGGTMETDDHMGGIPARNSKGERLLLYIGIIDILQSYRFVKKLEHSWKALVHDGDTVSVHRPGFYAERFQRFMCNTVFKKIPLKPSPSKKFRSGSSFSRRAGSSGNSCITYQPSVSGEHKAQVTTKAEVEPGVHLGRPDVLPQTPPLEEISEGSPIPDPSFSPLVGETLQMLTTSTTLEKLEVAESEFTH
Sequence of kinases (KINOMEscan panel) (Homo sapiens, UniProt Q9HC98) (Q9HC98 whole entry): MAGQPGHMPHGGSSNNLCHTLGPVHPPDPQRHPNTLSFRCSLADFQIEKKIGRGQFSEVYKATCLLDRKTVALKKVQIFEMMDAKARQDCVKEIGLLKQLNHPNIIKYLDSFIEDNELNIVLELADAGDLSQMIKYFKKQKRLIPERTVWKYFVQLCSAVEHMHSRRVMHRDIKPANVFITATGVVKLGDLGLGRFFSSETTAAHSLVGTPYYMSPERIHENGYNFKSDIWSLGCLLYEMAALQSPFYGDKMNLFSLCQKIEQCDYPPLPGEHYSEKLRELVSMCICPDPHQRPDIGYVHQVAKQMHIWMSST
Sequence of kinases (KINOMEscan panel) (Homo sapiens, UniProt P51451) (P51451 whole entry): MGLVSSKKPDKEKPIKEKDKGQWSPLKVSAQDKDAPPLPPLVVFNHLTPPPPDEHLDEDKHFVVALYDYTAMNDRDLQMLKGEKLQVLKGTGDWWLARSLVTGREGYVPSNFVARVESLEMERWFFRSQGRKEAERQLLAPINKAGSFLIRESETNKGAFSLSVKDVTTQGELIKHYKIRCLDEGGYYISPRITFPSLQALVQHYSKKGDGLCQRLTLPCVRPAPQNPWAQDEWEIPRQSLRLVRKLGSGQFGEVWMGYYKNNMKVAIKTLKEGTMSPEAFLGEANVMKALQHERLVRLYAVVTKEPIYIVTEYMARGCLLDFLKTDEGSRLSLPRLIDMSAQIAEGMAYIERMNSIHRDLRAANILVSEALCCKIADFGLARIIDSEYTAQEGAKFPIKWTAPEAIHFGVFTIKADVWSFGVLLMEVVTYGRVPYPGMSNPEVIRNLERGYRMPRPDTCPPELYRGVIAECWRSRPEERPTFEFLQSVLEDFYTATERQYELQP
Sequence of kinases (KINOMEscan panel) (Homo sapiens, UniProt Q13557) (Q13557 whole entry): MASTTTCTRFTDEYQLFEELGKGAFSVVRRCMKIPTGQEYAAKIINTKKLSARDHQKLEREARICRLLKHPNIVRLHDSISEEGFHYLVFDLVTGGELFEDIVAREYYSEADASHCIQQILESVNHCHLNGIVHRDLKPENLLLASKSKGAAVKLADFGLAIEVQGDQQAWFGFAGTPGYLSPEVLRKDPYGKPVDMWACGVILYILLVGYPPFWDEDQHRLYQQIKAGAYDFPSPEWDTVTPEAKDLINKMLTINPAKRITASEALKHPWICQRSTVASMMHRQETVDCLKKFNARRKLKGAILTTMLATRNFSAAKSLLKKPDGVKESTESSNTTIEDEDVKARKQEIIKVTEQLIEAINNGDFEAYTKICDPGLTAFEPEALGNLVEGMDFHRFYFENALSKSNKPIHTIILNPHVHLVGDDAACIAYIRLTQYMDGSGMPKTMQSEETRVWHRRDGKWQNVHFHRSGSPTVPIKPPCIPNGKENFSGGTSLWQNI
Sequence of kinases (KINOMEscan panel) (Homo sapiens, UniProt P41240) (P41240 whole entry): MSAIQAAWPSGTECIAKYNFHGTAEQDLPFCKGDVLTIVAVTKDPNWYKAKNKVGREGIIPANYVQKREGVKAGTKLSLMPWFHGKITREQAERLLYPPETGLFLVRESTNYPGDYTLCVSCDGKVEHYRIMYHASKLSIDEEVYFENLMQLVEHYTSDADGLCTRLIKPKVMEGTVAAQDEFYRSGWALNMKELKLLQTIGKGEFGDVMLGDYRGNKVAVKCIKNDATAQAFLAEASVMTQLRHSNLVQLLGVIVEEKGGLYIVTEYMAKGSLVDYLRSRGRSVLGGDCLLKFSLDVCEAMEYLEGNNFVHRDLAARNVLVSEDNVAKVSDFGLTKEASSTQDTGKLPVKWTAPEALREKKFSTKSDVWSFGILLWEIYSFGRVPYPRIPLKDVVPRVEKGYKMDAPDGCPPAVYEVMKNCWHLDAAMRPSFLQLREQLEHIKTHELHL
Sequence of kinases (KINOMEscan panel) (Homo sapiens, UniProt Q2M2I8) (Q2M2I8 whole entry): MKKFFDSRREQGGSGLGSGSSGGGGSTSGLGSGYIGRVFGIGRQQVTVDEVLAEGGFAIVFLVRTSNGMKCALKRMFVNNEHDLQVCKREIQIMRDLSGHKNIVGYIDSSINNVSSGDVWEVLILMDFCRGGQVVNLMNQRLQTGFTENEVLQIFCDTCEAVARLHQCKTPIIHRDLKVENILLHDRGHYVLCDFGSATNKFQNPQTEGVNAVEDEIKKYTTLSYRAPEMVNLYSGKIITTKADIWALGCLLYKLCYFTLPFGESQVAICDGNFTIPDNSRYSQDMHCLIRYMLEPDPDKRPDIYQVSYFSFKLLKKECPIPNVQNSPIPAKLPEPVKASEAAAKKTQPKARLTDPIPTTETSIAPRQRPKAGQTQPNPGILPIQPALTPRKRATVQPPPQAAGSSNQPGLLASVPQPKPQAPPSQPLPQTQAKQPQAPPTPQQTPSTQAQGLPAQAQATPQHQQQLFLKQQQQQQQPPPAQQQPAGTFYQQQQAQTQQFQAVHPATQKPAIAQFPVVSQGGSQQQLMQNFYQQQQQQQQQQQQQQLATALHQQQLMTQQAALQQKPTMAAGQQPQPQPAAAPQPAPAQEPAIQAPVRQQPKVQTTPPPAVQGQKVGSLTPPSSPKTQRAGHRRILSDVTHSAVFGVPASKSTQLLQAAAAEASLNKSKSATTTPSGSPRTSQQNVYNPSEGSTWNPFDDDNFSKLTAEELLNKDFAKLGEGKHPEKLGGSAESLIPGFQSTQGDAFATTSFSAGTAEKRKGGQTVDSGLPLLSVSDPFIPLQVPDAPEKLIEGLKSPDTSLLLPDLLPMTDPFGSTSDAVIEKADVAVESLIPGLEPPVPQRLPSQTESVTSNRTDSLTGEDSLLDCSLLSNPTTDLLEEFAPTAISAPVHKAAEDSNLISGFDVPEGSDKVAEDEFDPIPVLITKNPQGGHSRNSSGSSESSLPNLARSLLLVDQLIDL
Sequence of kinases (KINOMEscan panel) (Homo sapiens, UniProt P32298) (P32298 whole entry): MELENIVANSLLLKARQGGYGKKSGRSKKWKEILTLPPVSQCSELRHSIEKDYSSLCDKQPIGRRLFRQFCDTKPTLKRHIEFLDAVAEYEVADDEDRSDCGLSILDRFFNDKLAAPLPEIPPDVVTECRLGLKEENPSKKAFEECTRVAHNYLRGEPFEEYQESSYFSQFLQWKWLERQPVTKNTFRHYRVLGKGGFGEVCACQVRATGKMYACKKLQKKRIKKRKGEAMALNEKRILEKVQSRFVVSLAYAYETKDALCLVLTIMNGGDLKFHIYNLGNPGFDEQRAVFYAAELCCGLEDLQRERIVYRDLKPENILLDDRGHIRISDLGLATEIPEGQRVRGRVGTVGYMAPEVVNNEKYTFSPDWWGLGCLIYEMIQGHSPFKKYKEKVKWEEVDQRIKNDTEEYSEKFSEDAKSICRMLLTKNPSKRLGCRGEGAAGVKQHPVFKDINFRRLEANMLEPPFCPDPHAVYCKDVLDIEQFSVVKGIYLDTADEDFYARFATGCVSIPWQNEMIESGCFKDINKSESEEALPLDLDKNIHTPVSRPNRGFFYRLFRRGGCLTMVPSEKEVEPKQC

Structure (SMILES): Cc1cccc(-c2nc(Nc3ccncc3)c3ccccc3n2)n1 [NK215]
- KINOMEscan IRAK3 [1]: 21
- KINOMEscan MAP3K10 [2]: 7
- KINOMEscan PIP5K1A [3]: 10
- KINOMEscan NEK6 [4]: 21
- KINOMEscan CSK [5]: 4
- KINOMEscan BLK [6]: 1
- KINOMEscan SGK1 [7]: 0
- KINOMEscan MKNK1 [8]: 0
- KINOMEscan AAK1 [9]: 2
- KINOMEscan CAMK2D [10]: 7
- KINOMEscan GRK1 [11]: 0
- KINOMEscan GRK4 [12]: 0
- KINOMEscan CHEK2 [13]: 0
